Values joined by “and” are separate entries in the source; they are usually repeats but may differ in a detail not shown here. Identical values can stand only once. “Also recorded” adds a separate entry of the source.
Assays:
[1] = tested on: non-malignant control PNT1a cells; test: Staining of prostate cells with lipid dyes, PNT1a; assay type: cell-based, Human; conditions: PNT1a fixed in 4% paraformaldehyde, 30 minutes
Procedure: (§1) The fluorescent dyes, Filipin and BODIPY® 493/503, were incubated for 30 minutes with each of the four prostate cell lines (i.e. PNT1a, DU145, 22RV1 and LNCaP), fixed in 4% paraformaldehyde and imaged under confocal microscopy, which was supplemented with two-photon Mai-Tai® and Argon lasers. Prostate cell lines grown on coverslips were stained with ReZolve-L1™ and IraZolve [Ir(ppy)2(TzPyCN)] in serum-free media for 30 minutes at 37° C. and 5% CO2 and imaged in live mode, avoiding the process of fixation. From this experiment, different staining patterns between prostate cell lines and the fluorescent dyes were clearly seen (FIG. 12). For example, the level of diffuse cytosolic staining vs membrane staining with Filipin varied between cell lines (FIG. 12 a-d). […] Differences in the 22RV1 and LNCaP staining pattern in comparison to PNT1a and DU145 were apparent with BODIPY® 493/503 fluorescent dye. […] The fluorescence of ReZolve-L1™ was low in non-malignant control PNT1a cells, when compared to prostate cancer cells (FIG. 12i-l). […] These positive results prompted us to analyse staining of the prostate cells with the fluorescent dye IraZolve (FIG. 12m-p). […] In contrast, the intensity of staining in the malignant cell lines DU145, 22RV1 and LNCaP with ReZolve-L1™ was significant. […]

[2] = tested on: prostate cancer DU145 cells; test: Staining of prostate cells with lipid dyes, DU145; assay type: cell-based, Human; conditions: DU145 fixed in 4% paraformaldehyde, 30 minutes
Procedure: as §1

[3] = tested on: prostate cancer 22RV1 cells; test: Staining of prostate cells with lipid dyes, 22RV1; assay type: cell-based, Human; conditions: 22RV1 fixed in 4% paraformaldehyde, 30 minutes
Procedure: as §1

[4] = tested on: prostate cancer LNCaP cells; test: Staining of prostate cells with lipid dyes, LNCaP; assay type: cell-based, Human; conditions: 30 minutes
Procedure: as §1

[5] = previously published complex; cited from earlier work
[6] = Photophysical measurements (absorption, emission, lifetime, quantum yield) in diluted solutions; assay type: physicochemical
[7] = Lipophilicity by shake-flask method (7.4-buffered PBS / n-octanol); assay type: physicochemical; conditions: 7.4-buffered PBS solution and n-octanol

## CC1=CC(C)=[N+]2C1=C(C)c1c(C)cc(C)n1[B-]2(F)F [BODIPY® 493/503, reference compound]
[1]
  staining pattern: localised staining to lipid droplets
[2]
  staining pattern: localised staining to lipid droplets
[3]
  staining pattern: diffused cytosolic staining and localised staining to lipid droplets

## CCCCC[C@@H](O)[C@H]1C(=O)O[C@H](C)[C@@H](O)/C=C/C=C/C=C/C=C/C=C(\C)[C@@H](O)C[C@H](O)C[C@H](O)C[C@H](O)C[C@H](O)C[C@H](O)C[C@@H]1O [Filipin, reference compound]
[1]
  staining pattern: a number of small vesicles were brightly stained
[2]
  staining pattern: relatively low level
[3]
  staining pattern: quite bright vesicular and plasma membrane staining
[4]; LNCaP fixed in 4% paraformaldehyde
  staining pattern: a number of small vesicles were brightly stained

## c1cc[c]2c(c1)-c1cccc[n+]1[Ir]213([c]2ccccc2-c2cccc[n+]21)[n]1nnnc1-c1cccc[n+]13 [[Ir(ppy)2(TzPy)]]
[5]
  λem, structured emission: 481 nm and 510 nm

## N#Cc1ccc2[n+](c1)[Ir]13([c]4ccccc4-c4cccc[n+]41)([c]1ccccc1-c1cccc[n+]13)[n]1nnnc1-2 [[Ir(ppy)2(TzPyCN)]]
[6]; DCM, 10^−5 M
  Absorption λabs [nm] (10^4ε [M^−1cm^−1]): 263 (6.57) nm (10^4ε [M^−1cm^−1]) and 339 (1.59) nm (10^4ε [M^−1cm^−1]) and 382 (1.09) nm (10^4ε [M^−1cm^−1]) and 420 (0.58) nm (10^4ε [M^−1cm^−1])
[6]; DCM, 298K, 10^−5 M
  Emission λem: 618 nm
[6]; DCM, aerated, 298K
  τaer, excited state lifetime (relative weight in parentheses): 131 ns
[6]; DCM, aerated, versus Ru(bpy)3^2+ in water (φr = 0.028)
  Φaer, quantum yield: 0.055
[6]; DCM, deaerated, 298K
  τdeaer, excited state lifetime (relative weight in parentheses): 529 ns
[6]; DCM, deaerated, versus Ru(bpy)3^2+ in water (φr = 0.028)
  Φdeaer, quantum yield: 0.397
[6]; DCM, calculated as [(1 − φ)/τ] from deaerated solutions
  knr: 1.140 10^6s^−1
[6]; DCM, calculated as [φ/τ] from deaerated solutions
  kr: 7.505 10^5s^−1
[6]; H2O with 0.1% DMSO, 298K, aerated
  Emission λem: 618 nm
[6]; H2O with 0.1% DMSO, aerated, versus Ru(bpy)3^2+ in water
  Φ, quantum yield: 0.047
[7]
  logD7.4, distribution coefficient: 2.09 ± 0.06
[4]; live LNCaP, 20 μM, serum-free media, listed as IraZolve
  staining pattern / intensity: stains the endoplasmic reticulum, where both phospholipids and triacylglycerides are synthesised, and it also co-localises with fatty acids in lipid droplets; also recorded: almost identical to that observed for ReZolve-L1™; also recorded: significantly greater

Source: patent publication US20190226949A1, “IRIDIUM COMPLEXES FOR CELLULAR IMAGING” (UNIVERSITY OF SOUTH AUSTRALIA, priority 2016, published 2019)
